Values quoted from earlier work as cited in patent publication US20220378840A1, “COMPOSITIONS, KITS AND METHODS FOR STORAGE OF BLOOD PRODUCTS AND METHODS OF USE THEREOF” (Rutgers, The State University of New Jersey, priority 2019, published 2022).

Tests used:
cells = settings: 6% concentration HES
hemorrhagic shock = settings: 6% concentration HES
RBCs [1] = settings: 6% concentration L-carnitine
RBCs [2] = settings: prolonged incubation in 3% L-carnitine

Compound	cell survival during freezing and thawing (cells)	oxidative stress and inflammatory response in hemorrhagic shock (hemorrhagic shock)	recovery of RBCs (RBCs [1]) [%]	toxicity on prolonged incubation (RBCs [2])
Hydroxyethyl starch [HES]	improves cell survival	reduces oxidative stress and inflammatory response		
C[N+](C)(C)C[C@H](O)CC(=O)[O-] [L-carnitine]			80	non-toxic
